Consider 1 substance from patent publication US20080274202A1, “Compositions and Method for Brain Specific Targeted Delivery of Therapeutic Agents” (priority 2005, published 2008).

The data set concerns HOTCs. Kind of data set: HOTC maintenance in serum-free media with antibiotic. Format: cell-based. Particulars: by 21 DIV, in SFM. On the procedure: HOTCs were prepared and maintained by initial incubation in serum-based media followed by transfer to a serum-free media (SFM) at 4 days in vitro (DIV). The transfer from serum-containing medium to SFM prevented neuronal loss from occurring after two weeks of culture (stability was measured by neuron-specific nuclear protein (NeuN)-based western blots), and prevented glial activation in the HOTCs. SFM contained Neurobasal medium ((96%) from Invitrogen) supplemented to 42 mM glucose, 1 mM glutamine (from Sigma), 2% B27 supplement, 10 μg/mL gentamicin and […] Fungizone (from Invitrogen). […] The SFM was changed twice a week and the HOTCs were incubated at 36° C. with 5% CO2-balance air. Slices were maintained to 21 DIV to allow cultures to mature, and used from 21-30 DIV.

penicillin: the “CA3 field potentials from dentate gyrus stimulation” value is listed as “no CA3 field potentials were seen” and the “pyramidal cell survival in HOTCs” value was “most pyramidal cells were dead”.
